Experiments:
[1] = system: CH1; assay: Growth inhibition of doxorubicin-susceptible human CH1 cells after 96 hrs by sulforhodamine B assay; assay type: functional; conditions: CH1, 96 h
[2] = biological target: Cyclin-dependent kinase 4/cyclin D1 (Homo sapiens, UniProt P11802); assay: Inhibition of CDK4/cyclin D1; assay type: protein-complex assay
[3] = biological target: Cyclin-dependent kinase 1/cyclin B1 (Homo sapiens, UniProt P06493); assay: Inhibition of CDK1/cyclin B; assay type: protein-complex assay
Chain of Cyclin-dependent kinase 1/cyclin B1 (P06493 whole entry): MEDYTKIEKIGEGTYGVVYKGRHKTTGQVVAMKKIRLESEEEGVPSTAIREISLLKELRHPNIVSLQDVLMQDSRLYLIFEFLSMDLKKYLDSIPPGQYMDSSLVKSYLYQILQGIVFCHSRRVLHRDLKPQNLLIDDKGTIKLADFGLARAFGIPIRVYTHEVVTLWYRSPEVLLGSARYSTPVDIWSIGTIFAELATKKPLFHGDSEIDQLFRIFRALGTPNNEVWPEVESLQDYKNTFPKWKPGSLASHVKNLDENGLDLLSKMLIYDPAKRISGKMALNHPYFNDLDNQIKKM
Chain of Cyclin-dependent kinase 1/cyclin B1 (P14635 whole entry, further chain): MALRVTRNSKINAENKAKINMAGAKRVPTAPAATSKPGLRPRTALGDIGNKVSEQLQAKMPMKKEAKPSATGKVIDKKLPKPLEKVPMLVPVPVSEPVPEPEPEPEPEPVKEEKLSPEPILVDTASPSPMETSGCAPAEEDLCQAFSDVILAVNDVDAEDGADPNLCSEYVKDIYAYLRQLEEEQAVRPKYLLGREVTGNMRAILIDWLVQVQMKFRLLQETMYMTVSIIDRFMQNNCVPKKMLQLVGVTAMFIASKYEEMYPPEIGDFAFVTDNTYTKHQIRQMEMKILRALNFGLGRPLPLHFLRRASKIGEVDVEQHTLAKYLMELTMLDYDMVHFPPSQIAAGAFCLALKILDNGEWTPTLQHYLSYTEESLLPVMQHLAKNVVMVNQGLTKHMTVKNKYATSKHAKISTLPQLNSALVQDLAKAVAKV

[4] = biological target: Cyclin-dependent kinase 7/ cyclin H (Homo sapiens, UniProt P50613); assay: Inhibition of CDK7/cyclin H; assay type: protein-complex assay
Chain of Cyclin-dependent kinase 7/ cyclin H (P51946 whole entry): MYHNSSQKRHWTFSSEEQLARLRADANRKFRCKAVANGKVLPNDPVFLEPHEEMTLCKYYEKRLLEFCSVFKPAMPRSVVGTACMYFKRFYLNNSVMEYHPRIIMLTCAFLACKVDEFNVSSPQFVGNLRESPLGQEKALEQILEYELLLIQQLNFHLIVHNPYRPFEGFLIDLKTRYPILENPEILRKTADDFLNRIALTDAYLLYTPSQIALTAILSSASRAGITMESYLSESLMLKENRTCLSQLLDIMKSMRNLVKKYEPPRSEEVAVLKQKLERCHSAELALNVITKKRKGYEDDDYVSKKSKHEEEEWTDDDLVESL
Chain of Cyclin-dependent kinase 7/ cyclin H (P50613 whole entry): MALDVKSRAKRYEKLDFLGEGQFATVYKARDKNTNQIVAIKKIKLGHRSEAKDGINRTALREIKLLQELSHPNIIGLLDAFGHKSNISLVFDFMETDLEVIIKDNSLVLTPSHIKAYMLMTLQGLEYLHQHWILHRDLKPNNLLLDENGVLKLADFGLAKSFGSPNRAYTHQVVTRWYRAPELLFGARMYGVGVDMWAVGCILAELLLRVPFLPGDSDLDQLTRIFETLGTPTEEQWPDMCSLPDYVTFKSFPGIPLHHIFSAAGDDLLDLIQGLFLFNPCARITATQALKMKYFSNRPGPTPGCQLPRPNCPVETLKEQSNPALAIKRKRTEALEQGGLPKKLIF

[5] = system: A2780; assay: Growth inhibition of cisplatin-resistant human A2780 cells after 96 hrs by sulforhodamine B assay; assay type: functional; conditions: A2780, 96 h
[6] = system: HT-29; assay: Growth inhibition of human HT-29 cells after 96 hrs by sulforhodamine B assay; assay type: functional; conditions: HT-29, 96 h
[7] = system: HCT-116; assay: Growth inhibition of human HCT116 cells after 96 hrs by sulforhodamine B assay; assay type: functional; conditions: HCT-116, 96 h
[8] = system: A2780; assay: Growth inhibition of cisplatin-susceptible human A2780 cells after 96 hrs by sulforhodamine B assay; assay type: functional; conditions: A2780, 96 h
[9] = biological target: Mitogen-activated protein kinase 1 (Homo sapiens, UniProt P28482); assay: Inhibition of ERK2
Chain of Mitogen-activated protein kinase 1 (P28482 whole entry): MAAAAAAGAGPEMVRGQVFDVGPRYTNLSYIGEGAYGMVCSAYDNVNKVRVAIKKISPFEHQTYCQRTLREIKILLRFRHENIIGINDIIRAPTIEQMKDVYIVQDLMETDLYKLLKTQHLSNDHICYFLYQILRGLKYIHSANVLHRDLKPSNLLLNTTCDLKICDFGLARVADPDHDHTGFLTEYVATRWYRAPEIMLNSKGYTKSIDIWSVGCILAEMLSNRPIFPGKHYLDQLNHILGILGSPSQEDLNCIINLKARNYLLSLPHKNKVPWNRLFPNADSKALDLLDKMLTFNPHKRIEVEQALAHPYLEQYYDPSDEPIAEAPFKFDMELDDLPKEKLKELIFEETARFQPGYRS

[10] = Metabolic stability in mouse liver microsomes assessed as compound metabolized at 10 uM after 30 mins by LC-MS analysis; assay type: ADME, Microsome; conditions: read-out: Activity
[11] = system: CH1; assay: Growth inhibition of doxorubicin-resistant human CH1 cells after 96 hrs by sulforhodamine B assay; assay type: functional; conditions: CH1, 96 h
[12] = Inhibition of PKA
[13] = system: KM12; assay: Growth inhibition of human KM12 cells after 96 hrs by sulforhodamine B assay; assay type: functional; conditions: KM12, 96 h
[14] = biological target: Cyclin-dependent kinase 2/cyclin E1 (Homo sapiens, UniProt P24941); assay: Inhibition of CDK2/cyclin E; assay type: protein-complex assay
[15] = AUC in BALB/c mouse plasma at 50 mg/kg, iv after 24 hrs by LC-MS analysis; assay type: ADME, organism-based; set-up: time < 24 hr, dose 50 mg/kg, route intravenous
[16] = Solubility of the compound in water; assay type: physicochemical
[17] = Half life in BALB/c mouse plasma at 50 mg/kg, iv by LC-MS analysis; assay type: ADME, organism-based; set-up: dose 50 mg/kg, route intravenous
[18] = Cmax in BALB/c mouse plasma at 50 mg/kg, iv after 24 hrs by LC-MS analysis; assay type: ADME, organism-based; set-up: dose 50 mg/kg, route intravenous
[19] = Oral bioavailability in BALB/c mouse at 50 mg/kg by LC-MS analysis; assay type: ADME, organism-based; conditions: in vivo
[20] = Clearance in BALB/c mouse plasma at 50 mg/kg, iv after 24 hrs by LC-MS analysis; assay type: ADME, organism-based; set-up: dose 50 mg/kg, route intravenous
[21] = Volume of distribution in BALB/c mouse plasma at 50 mg/kg, iv after 24 hrs by LC-MS analysis; assay type: ADME, organism-based; set-up: dose 50 mg/kg, route intravenous

Chain of Cyclin-dependent kinase 4/cyclin D1 (P11802 whole entry): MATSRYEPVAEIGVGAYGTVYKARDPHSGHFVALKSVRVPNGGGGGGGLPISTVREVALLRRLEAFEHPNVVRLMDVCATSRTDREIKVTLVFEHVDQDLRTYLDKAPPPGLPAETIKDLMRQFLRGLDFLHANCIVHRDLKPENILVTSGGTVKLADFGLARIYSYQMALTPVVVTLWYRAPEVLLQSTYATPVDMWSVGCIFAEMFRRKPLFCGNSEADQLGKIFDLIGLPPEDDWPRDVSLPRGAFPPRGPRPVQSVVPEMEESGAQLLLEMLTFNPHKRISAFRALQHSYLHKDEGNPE
Chain of Cyclin-dependent kinase 4/cyclin D1 (P24385 whole entry, further chain): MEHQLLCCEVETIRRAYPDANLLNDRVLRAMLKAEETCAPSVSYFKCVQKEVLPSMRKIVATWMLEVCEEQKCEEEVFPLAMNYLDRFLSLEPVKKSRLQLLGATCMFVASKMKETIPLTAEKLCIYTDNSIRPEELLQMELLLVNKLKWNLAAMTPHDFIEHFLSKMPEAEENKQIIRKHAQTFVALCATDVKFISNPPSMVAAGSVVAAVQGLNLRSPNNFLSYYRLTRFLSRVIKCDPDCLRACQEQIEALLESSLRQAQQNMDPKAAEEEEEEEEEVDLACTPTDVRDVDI

Row | SMILES | GI50 [1] [µM] | IC50 [2] [µM] | IC50 [3] [µM] | IC50 [4] [µM] | GI50 [5] [µM] | GI50 [6] [µM] | GI50 [7] [µM] | GI50 [8] [µM] | IC50 [9] [µM] | metabolised at 0.5 h, 10 µM [10] [%] | GI50 [11] [µM] | IC50 [12] [µM] | GI50 [13] [µM] | IC50 [14] [µM] | also measured
1 | CC[C@H](Nc1nc(NCc2ccccn2)c2ncn(C(C)C)c2n1)C(C)(C)O | 42 | 20 | 24 | 4.3 | 44 | > 50 | 32 | 19 | > 200 | 53 | 26 | > 200 | 38 | 0.31 | –
2 | CC[C@@H](Nc1nc(NCc2cccnc2)c2ncn(C(C)C)c2n1)[C@H](C)O | – | – | – | – | – | – | – | – | – | – | – | – | – | – | AUC at 24 h [15]: 158 µM·h; solubility ([16]; buffer): soluble; half-life [17]: 1.7 h; Cmax [18]: 377 µM; bioavailability [19]: 15%; clearance [20]: 0.283 mL/min; Vd [21]: 0.084 L
3 | CC[C@H](Nc1nc(NCc2cccnc2)c2ncn(C(C)C)c2n1)[C@@H](C)O.O=C(O)C(F)(F)F | – | – | – | – | – | – | – | – | – | – | – | – | – | – | solubility ([16]; water, read-out: solubility): > 25 mg/mL
4 | CC[C@H](CO)Nc1nc(NCc2cccnc2)c2ncn(C(C)C)c2n1 | 4.8 | 20 | – | 0.18 | 6.6 | 5.8 | 4.5 | 5.2 | 24 | 54 | 16.5 | > 50 | 5.5 | – | –
5 | CC[C@@H](Nc1nc(NCc2ccccn2)c2ncn(C(C)C)c2n1)C(C)O (mixture of isomers) | 20 | 48 | 39 | 0.55 | 27 | 42 | 18 | 15 | 73 | 97 | 20 | > 200 | 37 | 0.52 | –
6 | CC[C@@H](Nc1nc(NCc2cccnc2)c2ncn(C(C)C)c2n1)C(C)O (mixture of isomers) | 4.5 | – | 4.9 | – | 4.4 | 4.7 | 2.5 | 3.1 | 23 | 10 | 5.2 | > 200 | 4.7 | – | –
7 | CCC(O)[C@@H](CC)Nc1nc(NCc2cccnc2)c2ncn(C(C)C)c2n1 (mixture of isomers) | 18 | 25 | 12 | 1.1 | 19 | 20 | 10 | 6.2 | – | 30 | 14.5 | > 200 | 13.5 | 0.22 | –
8 | CC[C@@H](Nc1nc(NCc2cccnc2)c2ncn(C(C)C)c2n1)C(O)C(C)C (mixture of isomers) | 30 | 21 | 20 | 2.2 | 37 | 32 | 25 | 23 | – | 36 | 25 | > 200 | 31 | 0.69 | –
9 | CC[C@@H](Nc1nc(NCc2cccnc2)c2ncn(C(C)C)c2n1)C(O)C(C)(C)C (mixture of isomers) | 23 | 24 | 23 | 1.6 | 23 | 22 | 20 | 18 | – | 46 | 23 | > 200 | 19 | 1 | –
10 | CC[C@@H](Nc1nc(NCc2ccccc2)c2ncn(C(C)C)c2n1)C(C)O (mixture of isomers) | 5 | 23 | – | 0.39 | 3.8 | 18 | 5.4 | 6.4 | 43 | 91 | 4.6 | > 50 | 5.4 | – | –
11 | CC[C@@H](Nc1nc(NCc2ccccc2)c2ncn(C(C)C)c2n1)C(O)C(C)C (mixture of isomers) | 23 | – | – | – | 21 | 13 | 22 | 17 | > 200 | 83 | 19 | 92 | 27 | – | –
12 | CC[C@@H](Nc1nc(NCc2ccccc2)c2ncn(C(C)C)c2n1)C(O)C(C)(C)C (mixture of isomers) | 23 | 200 | – | – | 23 | 14.5 | 24 | 18.5 | > 200 | 79 | 19 | 87 | 17 | – | –
13 | CC[C@H](Nc1nc(NCc2ccccn2)c2ncn(C(C)C)c2n1)C(C)O (mixture of isomers) | 21 | 18 | 8.9 | 2.6 | 17 | 20 | 10 | 10 | 77 | 67 | 15.5 | > 200 | 23 | 0.05 | –
14 | CC[C@H](Nc1nc(NCc2ccccn2)c2ncn(C(C)C)c2n1)C(O)C(C)(C)C (mixture of isomers) | > 50 | – | 200 | – | > 50 | 28 | > 50 | 38 | – | 97 | 47 | > 200 | 36 | – | –
15 | CC[C@H](Nc1nc(NCc2cccnc2)c2ncn(C(C)C)c2n1)C(C)O (mixture of isomers) | 0.92 | – | 2.2 | – | 1 | 1.1 | 0.76 | 0.78 | 20 | 33 | 1.5 | > 200 | 1.15 | – | –
16 | CCC(O)[C@H](CC)Nc1nc(NCc2cccnc2)c2ncn(C(C)C)c2n1 (mixture of isomers) | 11 | 11 | 13 | 1.5 | 12.5 | 12.5 | 5.4 | 4.3 | – | 27 | 9.4 | > 200 | 8.2 | 0.11 | –
17 | CC[C@H](Nc1nc(NCc2cccnc2)c2ncn(C(C)C)c2n1)C(O)C(C)C (mixture of isomers) | 22 | 31 | 22 | 3.5 | 26.5 | 26 | 22 | 19 | – | 62 | 20.5 | > 200 | 22 | 1.1 | –
18 | CC[C@H](Nc1nc(NCc2cccnc2)c2ncn(C(C)C)c2n1)C(O)C(C)(C)C (mixture of isomers) | 23 | 13 | 21 | 3.5 | 22 | 22 | 24 | 18 | – | 50 | 18.5 | > 200 | 19 | 0.39 | –
19 | CC[C@H](Nc1nc(NCc2ccccc2)c2ncn(C(C)C)c2n1)C(C)O (mixture of isomers) | 1.75 | 9 | – | 0.69 | 3.4 | 4.9 | 1.45 | 3.3 | 29 | 67 | 1.28 | > 50 | 1.9 | – | –
20 | CC[C@H](Nc1nc(NCc2ccccc2)c2ncn(C(C)C)c2n1)C(O)C(C)C (mixture of isomers) | 25 | 33 | – | 3 | 23 | 23 | 24 | 20 | 88 | 76 | 24 | 83 | 25 | – | –
21 | CC[C@H](Nc1nc(NCc2ccccc2)c2ncn(C(C)C)c2n1)C(O)C(C)(C)C (mixture of isomers) | 26 | – | – | – | 23 | 21.5 | 27 | 21.5 | > 200 | 74 | 21.5 | > 200 | 19 | – | –
22 | CC[C@H](CO)Nc1nc(NCc2ccccc2)c2ncn(C(C)C)c2n1 [SELICICLIB] | 3.25 | – | – | – | – | 6.4 | 5.05 | 4.45 | – | 67 | 5.4 | > 50 | – | – | AUC at 24 h [15]: 53.4 µM·h; half-life [17]: 1.4 h; Cmax [18]: 93.7 µM; clearance [20]: 0.85 mL/min; Vd [21]: 0.073 L
